Data set [1] relates to HeLa. In words: Cytotoxicity against human HeLa cells assessed as inhibition of cell proliferation measured after 48 hrs by MTS assay. Type of data set: functional, cell-based.
Data set [2] has as its system RAW264.7. The experiment in a line: Antiinflammatory activity against mouse RAW264.7 cells assessed as inhibition of LPS-induced nitric oxide overproduction pretreated with LPS for 24 hrs followed by overnight incubation with compound by Griess assay. Type of data set: functional, cell-based.
Data set [3] concerns RAW264.7. The experiment in a line: Cytotoxicity against mouse RAW264.7 cells assessed as cell proliferation at 10 ug/ml pretreated with LPS for 24 hrs followed by overnight incubation with compound by MTS assay. The data set is classed as cell-based. (Formazan colour is commonly taken as a measure of viable cells.)

The values that follow come from ChEMBL document CHEMBL4334477, “Bioactive Sesquiterpene Lactones Isolated from the Whole Plants of Vernonia cinerea” (J Nat Prod, 2019).

For orientation: IC50 means the point on the concentration scale where inhibition reaches its midpoint.

Regarding `C/C=C(\C)C(=O)O[C@H]1C[C@@]23CO[C@@H](C[C@](C)(/C=C4/OC(=O)C(COC)=C41)O2)[C@@H]3O`, the IC50 in data set [1] was greater than 10 µM.
Take `C=C(C)C(=O)O[C@H]1C[C@@]23CO[C@@H](C[C@](C)(/C=C4/OC(=O)C(COC)=C41)O2)[C@@H]3O`: in data set [1], the IC50 is greater than 10 µM.
`Cc1c2ccncc2c(C)c2c1[nH]c1ccccc12` [ELLIPTECINE]: the IC50 in data set [1] came to 2 µM.
Turning to `C/C=C(\C)C(=O)O[C@H]1C[C@@]23CO[C@@H](C[C@](C)(/C=C4/OC(=O)C(COC(C)=O)=C41)O2)[C@@H]3O`, the IC50 in data set [1] is greater than 10 µM.
On to `C=C(C)C(=O)O[C@H]1C[C@@]23CO[C@@H](C[C@](C)(C[C@@]4(OC)OC(=O)C(COC(C)=O)=C14)O2)[C@@H]3O`, for which the IC50 in data set [1] was greater than 10 µM.
With `C/C=C(\C)C(=O)O[C@H]1C[C@@]23CO[C@@H](C[C@](C)(C[C@@]4(OC)OC(=O)C(COC(C)=O)=C14)O2)[C@@H]3O`, in data set [1], the IC50 was greater than 10 µM.
For `C=C(C)C(=O)O[C@H]1C[C@@H](C)[C@@]2(O)CC[C@@](C)(/C=C3/OC(=O)C(COC(C)=O)=C31)O2`, the IC50 was found to be 35 µM in data set [1] and 23 µM in data set [2]. Further, the Activity entry in data set [3] is reported as “Non-Toxic”.
For the molecule `C=C(C)C(=O)O[C@H]1C[C@@]23CO[C@@H](C[C@](C)(/C=C4/OC(=O)C(COC(C)=O)=C41)O2)[C@@H]3O`, the IC50 in data set [1] is greater than 10 µM.
`C/C=C(\C)C(=O)O[C@H]1C[C@@H](C)[C@@]2(O)CC[C@@](C)(/C=C3/OC(=O)C(COC(C)=O)=C31)O2`: the IC50 in data set [1] was determined as 32 µM; in data set [2], 21 µM. Besides, in data set [3], the Activity result is on record as “Non-Toxic”.
